Patent publication US20050238589A1, “Methods and compositions for preventing or treating periodontal diseases” (priority 2004, published 2005)

Tests used:
[1] = tested on: PGE2 generation from gingival homogenates; settings: ElAttar et al. 1984; cited from earlier work
[2] = tested on: COX-derived eicosanoids in crevicular fluid; settings: cited from earlier work
[3] = tested on: CF-PGE2 levels; settings: in humans; cited from earlier work
[4] = tested on: P. gingivalis and ligature-induced experimental periodontitis; test: Morphometric analysis of mandibles in rabbit experimental periodontitis; assay type: in vivo, New Zealand White rabbits; settings: topical resolvin E1 before P. gingivalis application, every other day for 6 weeks; versus vehicle (ethanol)
[5] = tested on: P. gingivalis and ligature-induced experimental periodontitis; test: Radiographic analysis (Bjorn technique) in rabbit experimental periodontitis; assay type: in vivo, New Zealand White rabbits
[6] = tested on: P. gingivalis and ligature-induced experimental periodontitis; test: Histological analysis (HE) in rabbit experimental periodontitis; assay type: in vivo, New Zealand White rabbits; settings: topical application; rabbits with P. gingivalis and ligature placement
[7] = p<0.05 for vehicle group compared to resolvin E1 or ligature alone

SMILES	PGE2 generation from gingival homogenates [1]	CF-PGE2 levels, gingival inflammation, tooth attachment loss and bone loss ([2]; Pauletto et al. 1997, in some cases bone gain)	COX-derived eicosanoids in crevicular fluid (CF) ([2]; animals taking flurbiprofen)	CF-PGE2 levels [3]	bone destruction (defleshed bone specimens, FIG. 1) [4]	gingival inflammation (gingival tissue of mandibles, FIG. 1) [4]	percentage of bone loss calculated by the Bjorn technique (FIG. 5) [5, 7]	percentage of tooth in bone measured on radiographs (FIG. 4) [5, 7]	bone loss, radiographic appearance of alveolar bone (FIG. 3) ([5]; topical application, bone at the same level as ligature alone)	bone loss, histology (FIG. 6) [6]	inflammatory changes, histology (FIG. 6) [6]
CC(C(=O)O)c1ccc(-c2ccccc2)c(F)c1 (centres unmarked) [flurbiprofen]	significantly inhibited	reduced	decreased	dramatically decreased							
CC[C@@H](O)/C=C/C=C\C[C@@H](O)/C=C/C=C/C=C\[C@@H](O)CCCC(=O)O [resolvin E1]					prevented	prevented	prevents the destructive effects	maintenance of bone levels	prevented the bone loss	prevented	prevented
